Test results published in ChEMBL document CHEMBL1201862, “PubChem BioAssay data set” (2004).
Active and inactive are the calls of the source.

Key:
[1] = target: Ras and Rab interactor 1/Tyrosine-protein kinase ABL1 (Homo sapiens, UniProt P00519+Q13671); assay type: functional;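 note: biochemical TR-FRET dose-response test measuring inhibition of binding between Rin1 and Abl proteins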
[2] = target: Melanin-concentrating hormone receptor 1 (Homo sapiens, UniProt Q99705); assay: Late-stage fluorescence-based counterscreen for antagonists of the G-protein coupled receptor 7 (GPR7): cell-based dose response assay to identify antagonists of the melanin-concentrating hormone receptor 1 (MCHR1) Set 5.; assay type: functional
[3] = target: T1, Neuropeptides B/W receptor type 1 (Homo sapiens, UniProt P48145); assay: human NPBW1 receptor blockade, IC50 – cell-based, fluorescence, dose response, set 5, late-stage follow-up (AID 588566); assay type: functional
T1 sequence (P48145 whole entry): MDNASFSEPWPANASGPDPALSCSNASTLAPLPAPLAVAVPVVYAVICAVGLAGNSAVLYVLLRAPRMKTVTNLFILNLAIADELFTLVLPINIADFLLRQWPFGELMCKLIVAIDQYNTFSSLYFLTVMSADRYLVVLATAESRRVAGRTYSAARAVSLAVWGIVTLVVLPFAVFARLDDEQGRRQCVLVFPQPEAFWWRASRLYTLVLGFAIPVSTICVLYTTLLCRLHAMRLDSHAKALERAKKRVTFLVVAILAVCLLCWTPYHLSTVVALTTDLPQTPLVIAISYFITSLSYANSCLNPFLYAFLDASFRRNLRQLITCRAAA

[4] = target: T2, Small ubiquitin-related modifier 1 (Homo sapiens, UniProt P63165); assay: SUMO1 protein interaction blockers, potency – biochemical, fluorescence polarization, uHTS hits, dose response (AID 624382); assay type: functional; conditions: read-out: IC50_Mean
[5] = target: T2, Small ubiquitin-related modifier 1; assay: SUMO1 protein-protein binding blockers, potency – biochemical, FRET, dose response (AID 624383); assay type: functional; conditions: read-out: IC50_Mean
[6] = target: Induced myeloid leukemia cell differentiation protein Mcl-1 (Homo sapiens, UniProt Q07820); assay type: functional
[7] = target: T3, Small ubiquitin-related modifier 2 (Homo sapiens, UniProt P61956); assay: SUMO2 binding disruption by SUMO1 hits – biochemical, FRET, human SUMO2, uHTS hits, selectivity assay for SUMO1 interaction inhibitor project, dose response (AID 624384); assay type: functional; conditions: read-out: IC50_Mean
[8] = target: T3, Small ubiquitin-related modifier 2; assay: disruption of SUMO2 interaction with SIM peptide – biochemical, fluorescence polarization, uHTS hits, selectivity assay for SUMO1 interaction inhibitor project, dose response (AID 624385); assay type: functional; conditions: read-out: IC50_Mean
Protein RecA = target: T4, Protein RecA (Mycobacterium tuberculosis, UniProt P9WHJ3); assay: Fluorescence Cell-Free Homogeneous Dose Retest to Identify Inhibitors of RecA-Intein Splicing Activity. [Related pubchem assays (depositor defined):AID2097, AID2223, AID489010, AID492950]; assay type: functional
T4 sequence (P9WHJ3 whole entry): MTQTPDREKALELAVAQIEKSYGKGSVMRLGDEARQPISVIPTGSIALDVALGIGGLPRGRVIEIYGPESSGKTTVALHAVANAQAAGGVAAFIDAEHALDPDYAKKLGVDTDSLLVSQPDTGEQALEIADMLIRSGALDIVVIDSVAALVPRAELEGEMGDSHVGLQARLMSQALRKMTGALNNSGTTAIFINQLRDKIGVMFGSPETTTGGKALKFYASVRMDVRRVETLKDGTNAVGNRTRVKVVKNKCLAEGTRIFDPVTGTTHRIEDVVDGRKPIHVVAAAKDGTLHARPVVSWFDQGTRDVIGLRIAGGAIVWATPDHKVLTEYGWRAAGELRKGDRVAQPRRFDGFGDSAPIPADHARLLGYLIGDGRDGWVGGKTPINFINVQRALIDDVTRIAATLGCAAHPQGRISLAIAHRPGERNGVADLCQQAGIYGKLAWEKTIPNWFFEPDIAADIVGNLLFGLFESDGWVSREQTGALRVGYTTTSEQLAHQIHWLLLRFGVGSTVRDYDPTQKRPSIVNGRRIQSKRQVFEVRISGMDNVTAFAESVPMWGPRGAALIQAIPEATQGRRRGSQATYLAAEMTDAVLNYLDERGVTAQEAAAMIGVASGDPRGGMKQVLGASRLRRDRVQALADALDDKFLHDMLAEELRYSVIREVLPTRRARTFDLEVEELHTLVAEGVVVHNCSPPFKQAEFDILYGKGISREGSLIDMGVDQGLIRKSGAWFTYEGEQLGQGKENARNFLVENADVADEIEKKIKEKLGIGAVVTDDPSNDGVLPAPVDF

[9] = target: T5, Replicative DNA helicase DnaB (Mycobacterium tuberculosis, UniProt P9WMR3); assay: DnaB intein splicing inhibitors, dose response, biochemical, cell-free fluorescence (AID 449749); assay type: functional
T5 sequence (P9WMR3 whole entry): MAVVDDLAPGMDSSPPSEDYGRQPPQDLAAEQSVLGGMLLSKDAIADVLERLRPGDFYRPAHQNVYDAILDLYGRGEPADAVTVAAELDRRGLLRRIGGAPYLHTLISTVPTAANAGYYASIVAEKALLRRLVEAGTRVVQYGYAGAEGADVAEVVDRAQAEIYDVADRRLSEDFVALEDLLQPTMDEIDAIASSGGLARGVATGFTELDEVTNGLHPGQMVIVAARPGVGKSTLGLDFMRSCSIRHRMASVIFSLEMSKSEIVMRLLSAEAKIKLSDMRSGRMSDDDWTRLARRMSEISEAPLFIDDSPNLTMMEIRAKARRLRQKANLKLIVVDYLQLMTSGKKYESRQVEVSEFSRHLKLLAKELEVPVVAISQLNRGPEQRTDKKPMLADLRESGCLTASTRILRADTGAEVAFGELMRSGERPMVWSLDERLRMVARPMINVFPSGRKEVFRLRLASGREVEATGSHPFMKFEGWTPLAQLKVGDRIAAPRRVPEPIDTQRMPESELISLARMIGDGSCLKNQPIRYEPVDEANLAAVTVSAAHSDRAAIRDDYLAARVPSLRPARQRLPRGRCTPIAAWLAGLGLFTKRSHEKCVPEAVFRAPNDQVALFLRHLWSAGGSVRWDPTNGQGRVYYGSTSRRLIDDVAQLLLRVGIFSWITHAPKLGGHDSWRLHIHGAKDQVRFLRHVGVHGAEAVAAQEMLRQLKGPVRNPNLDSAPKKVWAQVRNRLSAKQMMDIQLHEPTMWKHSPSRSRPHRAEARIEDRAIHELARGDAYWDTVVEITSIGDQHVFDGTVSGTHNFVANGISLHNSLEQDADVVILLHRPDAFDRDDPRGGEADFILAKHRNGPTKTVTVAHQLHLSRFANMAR

Interleukin-8 = Interleukin-8 (Homo sapiens, UniProt P10145); assay: Dose Response confirmation of uHTS small molecule hits for cystic fibrosis induced NFkb Inhibitors in a PAF-induced IL8 counterscreen.; assay type: functional; conditions: read-out: IC50_Mean
[10] = target: T6, Polyadenylate-binding protein 1 (Homo sapiens, UniProt P11940); assay: MLLE binding blockers, Cy5 peptide tracer – biochemical, fluorescence polarization, Cy5-PAM2 peptide, secondary, miRNA deadenylation inhibitor project, dose response (AID 602260); assay type: functional; conditions: read-out: IC50_Mean
[11] = target: T6, Polyadenylate-binding protein 1; assay: MLLE domain peptide-binding blockers, IC50 – biochemical, fluorescence polarization, FITC-PAM2 peptide, dose response (AID 602259); assay type: functional; conditions: read-out: IC50_Mean
[12] = target: SWI/SNF-related matrix-associated actin-dependent regulator of chromatin subfamily A member 2 (Homo sapiens, UniProt P51531); assay: Luminescence-based cell-based high throughput dose response assay to identify activators of the function of SWI/SNF related, matrix associated, actin dependent regulator of chromatin, subfamily a, member 2 (SMARCA2, BRM).; assay type: functional
[13] = Counterscreen for activators of the function of SWI/SNF related, matrix associated, actin dependent regulator of chromatin, subfamily a, member 2 (SMARCA2, BRM): Luminescence-based cell-based high throughput dose response assay to identify non-selective compounds using the VP16 reporter assay.; assay type: functional
Cytochrome P450 3A4 = Cytochrome P450 3A4 (Homo sapiens, UniProt P08684); conditions: Potency;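 note: confirmatory qHTS run detecting inhibitors and substrates of CYP3A4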
[14] = target: DNA (cytosine-5)-methyltransferase 1 (Homo sapiens, UniProt P26358); assay: inhibition of DNA methylation by DNMT1 – biochemical, fluorescent molecular beacon, confirmation (AID 602386); assay type: functional
[15] = target: DNA dC->dU-editing enzyme APOBEC-3G (Homo sapiens, UniProt Q9HC16); assay type: functional;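 note: Dose-response counterscreen measuring inhibition of APOBEC3G DNA deaminase activity, run while confirming APOBEC3A inhibitors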
[16] = cytotoxicity toward MDA-MB-231 breast cancer cells – cell-based, CellTiter-Glo luminescence, cherry-pick, cytotoxicity control for RAD54 inhibitor project, dose response (AID 651692); assay type: functional
[17] = target: DNA dC->dU-editing enzyme APOBEC-3A (Homo sapiens, UniProt P31941); assay: Dose Response confirmation of small molecule APOBEC3A DNA Deaminase Inhibitors via a fluorescence-based single-stranded DNA deaminase assay. [Related pubchem assays (depositor defined):AID493011, AID493024]; assay type: functional
[18] = target: T7, DNA repair protein RAD52 homolog (Homo sapiens, UniProt P43351); assay type: functional, biochemical
T7 sequence (P43351 whole entry): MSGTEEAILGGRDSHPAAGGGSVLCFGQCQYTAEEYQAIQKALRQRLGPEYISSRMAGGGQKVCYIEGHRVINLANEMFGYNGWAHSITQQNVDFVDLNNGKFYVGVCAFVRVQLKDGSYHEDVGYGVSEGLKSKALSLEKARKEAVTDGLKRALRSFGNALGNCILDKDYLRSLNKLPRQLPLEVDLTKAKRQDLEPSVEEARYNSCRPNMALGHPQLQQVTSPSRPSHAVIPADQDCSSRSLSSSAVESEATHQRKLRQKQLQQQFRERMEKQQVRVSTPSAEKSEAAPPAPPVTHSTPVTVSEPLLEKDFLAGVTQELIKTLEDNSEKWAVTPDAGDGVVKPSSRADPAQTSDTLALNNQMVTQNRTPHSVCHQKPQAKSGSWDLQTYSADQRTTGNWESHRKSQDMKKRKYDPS

[19] = target: T8, DNA repair and recombination protein RAD54-like (Homo sapiens, UniProt Q92698); assay: RAD54 Holliday junction migration blockers – biochemical, fluorescence, cherry-picked samples, dose series, confirmation (AID 651657); assay type: functional
T8 sequence (Q92698 whole entry): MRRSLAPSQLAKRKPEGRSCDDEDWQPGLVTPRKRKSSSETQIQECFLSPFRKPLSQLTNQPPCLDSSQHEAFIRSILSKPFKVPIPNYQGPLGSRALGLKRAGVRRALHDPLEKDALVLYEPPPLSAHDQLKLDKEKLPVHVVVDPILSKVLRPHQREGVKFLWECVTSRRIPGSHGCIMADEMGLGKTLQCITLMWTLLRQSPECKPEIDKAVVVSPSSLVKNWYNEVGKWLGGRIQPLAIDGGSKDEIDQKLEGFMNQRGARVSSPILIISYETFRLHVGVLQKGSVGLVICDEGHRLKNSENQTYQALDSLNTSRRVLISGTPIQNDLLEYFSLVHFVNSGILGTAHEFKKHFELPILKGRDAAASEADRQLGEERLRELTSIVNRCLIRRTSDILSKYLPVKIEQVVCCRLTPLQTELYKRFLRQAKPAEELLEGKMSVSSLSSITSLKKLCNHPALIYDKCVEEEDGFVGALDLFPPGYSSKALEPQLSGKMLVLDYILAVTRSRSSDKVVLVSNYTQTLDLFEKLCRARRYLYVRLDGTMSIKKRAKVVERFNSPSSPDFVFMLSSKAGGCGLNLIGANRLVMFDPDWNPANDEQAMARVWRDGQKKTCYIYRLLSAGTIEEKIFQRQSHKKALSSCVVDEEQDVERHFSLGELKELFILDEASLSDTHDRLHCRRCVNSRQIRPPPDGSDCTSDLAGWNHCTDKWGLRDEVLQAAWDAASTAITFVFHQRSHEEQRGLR

T3 sequence (P61956 whole entry): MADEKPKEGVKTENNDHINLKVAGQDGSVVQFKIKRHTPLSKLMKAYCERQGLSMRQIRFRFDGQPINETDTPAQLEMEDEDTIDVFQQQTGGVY
T2 sequence (P63165 whole entry): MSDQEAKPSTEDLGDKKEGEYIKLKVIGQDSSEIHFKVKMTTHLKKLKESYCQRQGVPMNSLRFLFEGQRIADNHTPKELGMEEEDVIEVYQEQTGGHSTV
T6 sequence (P11940 whole entry, the tested form may be a part): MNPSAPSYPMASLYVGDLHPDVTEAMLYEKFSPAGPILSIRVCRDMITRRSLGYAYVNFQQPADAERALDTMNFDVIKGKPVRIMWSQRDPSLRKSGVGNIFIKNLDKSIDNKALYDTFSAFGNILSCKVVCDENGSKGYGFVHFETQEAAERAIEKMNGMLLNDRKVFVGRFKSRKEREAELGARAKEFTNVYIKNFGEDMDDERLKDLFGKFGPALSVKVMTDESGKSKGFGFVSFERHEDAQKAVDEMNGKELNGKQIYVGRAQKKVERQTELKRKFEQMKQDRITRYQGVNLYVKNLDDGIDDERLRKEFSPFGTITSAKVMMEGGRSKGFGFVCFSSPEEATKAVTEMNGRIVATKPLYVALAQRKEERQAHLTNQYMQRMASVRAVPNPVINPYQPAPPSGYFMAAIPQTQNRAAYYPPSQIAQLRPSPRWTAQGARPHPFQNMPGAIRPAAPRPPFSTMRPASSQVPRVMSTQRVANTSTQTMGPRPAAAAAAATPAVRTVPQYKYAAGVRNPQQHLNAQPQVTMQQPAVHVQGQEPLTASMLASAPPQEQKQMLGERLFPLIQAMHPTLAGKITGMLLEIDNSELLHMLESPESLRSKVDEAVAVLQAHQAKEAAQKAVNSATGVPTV
Sequence of DNA (cytosine-5)-methyltransferase 1 (P26358 whole entry): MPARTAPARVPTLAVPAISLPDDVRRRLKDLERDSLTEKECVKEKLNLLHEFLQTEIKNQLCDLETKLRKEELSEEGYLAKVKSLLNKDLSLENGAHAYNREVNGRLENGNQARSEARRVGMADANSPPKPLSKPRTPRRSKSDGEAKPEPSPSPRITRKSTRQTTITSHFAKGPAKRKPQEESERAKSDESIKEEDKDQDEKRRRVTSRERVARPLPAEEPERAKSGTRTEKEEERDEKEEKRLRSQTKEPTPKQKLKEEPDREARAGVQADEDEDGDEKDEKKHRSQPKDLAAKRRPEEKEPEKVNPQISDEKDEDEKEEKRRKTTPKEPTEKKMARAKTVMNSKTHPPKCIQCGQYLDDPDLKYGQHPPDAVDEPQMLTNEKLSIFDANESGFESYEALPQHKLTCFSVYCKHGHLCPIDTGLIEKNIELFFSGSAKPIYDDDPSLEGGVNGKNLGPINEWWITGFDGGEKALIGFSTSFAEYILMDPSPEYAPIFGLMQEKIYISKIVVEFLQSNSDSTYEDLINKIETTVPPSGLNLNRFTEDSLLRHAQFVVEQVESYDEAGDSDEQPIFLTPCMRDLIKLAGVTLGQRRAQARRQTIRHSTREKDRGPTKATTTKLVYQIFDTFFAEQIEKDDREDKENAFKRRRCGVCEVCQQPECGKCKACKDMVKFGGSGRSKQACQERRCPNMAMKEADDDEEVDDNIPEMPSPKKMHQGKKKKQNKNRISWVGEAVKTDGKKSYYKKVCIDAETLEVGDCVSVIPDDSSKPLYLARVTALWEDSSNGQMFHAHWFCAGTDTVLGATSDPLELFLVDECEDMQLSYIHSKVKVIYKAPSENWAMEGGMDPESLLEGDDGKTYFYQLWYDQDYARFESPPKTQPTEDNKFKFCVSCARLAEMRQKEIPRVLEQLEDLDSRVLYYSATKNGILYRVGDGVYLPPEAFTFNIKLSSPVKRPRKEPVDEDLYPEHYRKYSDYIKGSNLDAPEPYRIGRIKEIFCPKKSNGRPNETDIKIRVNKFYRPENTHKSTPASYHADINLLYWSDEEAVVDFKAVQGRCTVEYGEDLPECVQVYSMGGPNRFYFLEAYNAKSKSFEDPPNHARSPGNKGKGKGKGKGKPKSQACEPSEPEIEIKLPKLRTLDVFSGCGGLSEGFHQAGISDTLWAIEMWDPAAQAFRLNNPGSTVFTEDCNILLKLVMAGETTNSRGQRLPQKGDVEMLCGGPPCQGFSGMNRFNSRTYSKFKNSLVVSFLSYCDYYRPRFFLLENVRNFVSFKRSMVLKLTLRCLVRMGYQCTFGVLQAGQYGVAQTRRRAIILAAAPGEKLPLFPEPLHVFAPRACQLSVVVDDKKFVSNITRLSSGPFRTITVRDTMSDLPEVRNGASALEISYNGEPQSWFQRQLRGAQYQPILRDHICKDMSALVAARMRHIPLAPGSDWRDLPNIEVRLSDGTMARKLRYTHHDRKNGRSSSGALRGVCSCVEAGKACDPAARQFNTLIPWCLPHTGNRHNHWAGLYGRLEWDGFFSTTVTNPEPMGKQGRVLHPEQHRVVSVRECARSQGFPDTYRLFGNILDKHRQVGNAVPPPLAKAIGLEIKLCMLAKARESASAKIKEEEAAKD
Sequence of DNA dC->dU-editing enzyme APOBEC-3G (Q9HC16 whole entry): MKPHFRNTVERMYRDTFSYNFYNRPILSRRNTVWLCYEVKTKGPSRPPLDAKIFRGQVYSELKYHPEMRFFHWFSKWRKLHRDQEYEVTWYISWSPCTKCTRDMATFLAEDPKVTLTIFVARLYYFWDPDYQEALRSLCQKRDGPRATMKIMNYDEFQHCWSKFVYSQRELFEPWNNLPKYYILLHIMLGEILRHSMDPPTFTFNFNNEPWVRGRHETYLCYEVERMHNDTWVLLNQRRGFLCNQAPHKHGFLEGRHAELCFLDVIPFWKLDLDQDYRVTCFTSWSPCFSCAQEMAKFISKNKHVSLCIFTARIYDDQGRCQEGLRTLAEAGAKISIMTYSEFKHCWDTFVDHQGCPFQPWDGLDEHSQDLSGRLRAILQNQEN
Sequence of Melanin-concentrating hormone receptor 1 (Q99705 whole entry): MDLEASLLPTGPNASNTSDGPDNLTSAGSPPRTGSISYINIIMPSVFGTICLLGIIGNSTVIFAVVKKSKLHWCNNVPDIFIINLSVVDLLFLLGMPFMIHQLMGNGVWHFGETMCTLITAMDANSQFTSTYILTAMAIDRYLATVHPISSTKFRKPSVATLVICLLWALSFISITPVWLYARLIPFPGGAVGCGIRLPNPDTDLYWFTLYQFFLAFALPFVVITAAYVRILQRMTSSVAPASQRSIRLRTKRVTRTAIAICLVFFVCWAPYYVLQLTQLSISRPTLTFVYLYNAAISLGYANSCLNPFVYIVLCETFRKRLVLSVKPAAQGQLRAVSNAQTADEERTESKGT
Sequence of DNA dC->dU-editing enzyme APOBEC-3A (P31941 whole entry): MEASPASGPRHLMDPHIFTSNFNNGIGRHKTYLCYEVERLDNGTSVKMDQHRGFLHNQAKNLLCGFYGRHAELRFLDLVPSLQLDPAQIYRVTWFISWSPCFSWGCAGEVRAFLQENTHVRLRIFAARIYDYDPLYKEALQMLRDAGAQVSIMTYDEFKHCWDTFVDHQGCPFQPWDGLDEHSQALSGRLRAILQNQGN
Sequence of SWI/SNF-related matrix-associated actin-dependent regulator of chromatin subfamily A member 2 (P51531 whole entry): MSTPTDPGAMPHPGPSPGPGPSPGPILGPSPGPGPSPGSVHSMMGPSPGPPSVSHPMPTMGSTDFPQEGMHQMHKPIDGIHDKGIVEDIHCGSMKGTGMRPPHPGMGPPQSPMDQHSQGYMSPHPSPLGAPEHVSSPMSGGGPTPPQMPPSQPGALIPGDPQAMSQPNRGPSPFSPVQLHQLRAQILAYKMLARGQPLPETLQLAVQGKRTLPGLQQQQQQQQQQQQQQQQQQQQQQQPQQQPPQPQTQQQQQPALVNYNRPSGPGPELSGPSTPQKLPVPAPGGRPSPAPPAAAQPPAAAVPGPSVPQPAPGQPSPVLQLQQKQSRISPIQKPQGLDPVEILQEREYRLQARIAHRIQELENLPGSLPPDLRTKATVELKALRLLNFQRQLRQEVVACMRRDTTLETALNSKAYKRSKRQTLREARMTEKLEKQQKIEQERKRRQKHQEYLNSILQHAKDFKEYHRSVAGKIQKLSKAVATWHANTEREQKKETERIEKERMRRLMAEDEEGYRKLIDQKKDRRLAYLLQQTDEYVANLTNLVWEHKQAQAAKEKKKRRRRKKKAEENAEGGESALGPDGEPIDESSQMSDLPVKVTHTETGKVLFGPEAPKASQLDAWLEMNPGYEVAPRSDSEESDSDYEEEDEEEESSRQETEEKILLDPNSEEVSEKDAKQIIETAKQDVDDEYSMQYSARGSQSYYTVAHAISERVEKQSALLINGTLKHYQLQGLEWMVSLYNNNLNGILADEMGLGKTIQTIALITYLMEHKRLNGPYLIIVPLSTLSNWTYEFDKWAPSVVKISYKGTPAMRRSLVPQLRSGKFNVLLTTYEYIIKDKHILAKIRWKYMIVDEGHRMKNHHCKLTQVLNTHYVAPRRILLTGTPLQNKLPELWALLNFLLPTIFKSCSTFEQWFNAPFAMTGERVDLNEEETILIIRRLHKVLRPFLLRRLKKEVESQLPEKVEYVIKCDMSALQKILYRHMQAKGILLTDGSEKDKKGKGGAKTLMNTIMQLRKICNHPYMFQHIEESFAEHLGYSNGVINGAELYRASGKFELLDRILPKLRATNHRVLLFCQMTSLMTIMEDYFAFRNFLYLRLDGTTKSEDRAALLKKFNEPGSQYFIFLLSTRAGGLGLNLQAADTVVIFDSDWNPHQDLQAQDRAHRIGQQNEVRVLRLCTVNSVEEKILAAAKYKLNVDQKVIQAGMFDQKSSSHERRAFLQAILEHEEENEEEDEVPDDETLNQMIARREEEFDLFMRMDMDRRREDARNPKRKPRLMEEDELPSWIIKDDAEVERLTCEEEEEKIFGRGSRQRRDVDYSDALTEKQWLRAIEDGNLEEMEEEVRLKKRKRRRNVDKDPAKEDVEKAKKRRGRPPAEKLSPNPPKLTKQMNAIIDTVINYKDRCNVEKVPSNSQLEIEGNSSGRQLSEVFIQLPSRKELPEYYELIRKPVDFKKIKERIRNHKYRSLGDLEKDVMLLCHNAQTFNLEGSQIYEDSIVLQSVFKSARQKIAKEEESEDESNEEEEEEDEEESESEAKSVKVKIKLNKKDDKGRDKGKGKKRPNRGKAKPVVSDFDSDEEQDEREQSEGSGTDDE

SMILES: CCOC(=O)CCCCC(=O)c1[nH]c(O)nc1CN1CCOCC1
- IC50 [1]: 0.548 µM (active)

SMILES: CCOC(=O)C(C#N)c1ccnn(Cc2cccc3ccccc23)c1=O (configuration not stated)
- IC50 [2]: 15 µM (inactive)
- IC50 [3]: 1.74 µM (active)

SMILES: NC1=C2C(=O)c3ccccc3C(=O)C2=C(N)CC1
- IC50 [4]: 7.71 µM (active)
- IC50 [5]: 52.4 µM (inactive)
- IC50 [6]: 1.8 µM (not active)
- IC50 [7]: > 66 µM (inactive)
- IC50 [8]: 10.5 µM (active)
- EC50 (Protein RecA): 3.57 µM (active)
- AC50 [9]: 11.3 µM (active)

SMILES: NC(=O)c1cc2ccc(O)cc2o/c1=N\c1ccccc1
- IC50 (Interleukin-8): 6.71 µM (active)

SMILES: O=C1c2ccccc2-c2cccc3cccc1c23 [BENZANTHRONE]
- IC50 [10]: > 66 µM (inactive)
- IC50 [11]: 34 µM (inactive)
- EC50 [12]: > 91.2 µM (inactive)
- EC50 [13]: > 91.2 µM (inactive)
- AC50 (Cytochrome P450 3A4): 39.8 µM (inconclusive)
- IC50 [14]: 41 µM (active)

SMILES: CCN1CCN(c2ccc(NC(=O)c3cc4ccccc4cc3OC)cc2C)CC1
- IC50 [15]: 6.67 µM (active)
- AC50 [16]: 36.5 µM (active)
- IC50 [17]: 4.24 µM (active)
- AC50 [18]: 18.2 µM (active)
- AC50 [19]: 52.2 µM (active)
